Here are results for seven molecules from patent publication US7423181B2, “Aminoalkoxy-functional chalcones” (Lica Pharmaceuticals A/S, priority 2002, dated 2008).

In brackets after ≈: the same amount, converted by molar mass. Read-outs that look alike come from different tables or passages of the source.

Holding throughout (assay): MIC determination in broth microdilution assay
The test system of assay [1] is Staphylococcus aureus ATCC29213.
Assay [2] relates to Enterococcus faecalis ATCC29212.
Assay [3] deals with Enterococcus faecium #17501 (vancomycin-resistant clinical isolate).
Assay [4] concerns Staphylococcus aureus ATCC33591(resistant to methicillin).
Assay [5] relates to Streptococcus pneumoniae #998 (clinical isolate).
Assay [6] deals with Eschericia coli ESS.
The subject of assay [7] is Eschericia coli ATCC25922. The settings on record: for MIC: G: Eschericia coli ATCC25922.
Where [8] appears, read: A: Staphylococcus aureus ATCC29213.
The mark [9] stands for this setting: D: Enterococcus faecalis ATCC29212.
The mark [10] stands for this setting: E: Enterococcus faecium #17501 (vancomycin-resistant).
Where [11] appears, read: B: Staphylococcus aureus ATCC33591(resistant to methicillin).
The mark [12] stands for this setting: F: Streptococcus pneumoniae #998.

The term MIC denotes the least concentration at which growth counts as inhibited. Read a low MIC as a more susceptible organism. On to `Cc1cc(C)cc(-c2ccc(OCCN(C)C)c(/C=C/C(=O)c3cccc(O)c3)c2)c1` [Compound C085, (E)-3-[4-(2-Dimethylamino-ethoxy)-3′,5′-dimethyl-biphenyl-3-yl]-1-(3-hydroxy-phenyl)-propenone], for which the MIC turned out to be 4.7 µM (≈ 1.95 µg/mL) in assay [1] (setting [8]); 4.7 µM (≈ 1.95 µg/mL) in assay [2] (setting [9]); 4.7 µM (≈ 1.95 µg/mL) in assay [3] (setting [10]); 4.7 µM (≈ 1.95 µg/mL) in assay [4] (setting [11]); 75 µM (≈ 31.2 µg/mL) in assay [5] (setting [12]); 4.7 µM (≈ 1.95 µg/mL) in assay [6] (H: Eschericia coli ESS).
Regarding `Cc1cc(C)cc(-c2ccc(OCCN(C)C)c(CCC(=O)c3ccc(F)cc3)c2)c1` [Compound C072, 3-[4-(2-Dimethylamino-ethoxy)-3′,5′-dimethyl-biphenyl-3-yl]-1-(4-fluoro-phenyl)-propan-1-one], the MIC in assay [1] (Staphylococcus aureus, ATCC29213) came to 9.4 µM (≈ 3.94 µg/mL); in assay [2] (Enterococcus faecalis, ATCC29212), 18.8 µM (≈ 7.89 µg/mL); in assay [3] (Enterococcus faecium) it was 18.8 µM (≈ 7.89 µg/mL); in assay [4] (Staphylococcus aureus, ATCC33591) it was 18.8 µM (≈ 7.89 µg/mL); in assay [5] (Streptococcus pneumoniae) it was 37.5 µM (≈ 15.7 µg/mL); in assay [6] it was 9.4 µM (≈ 3.94 µg/mL).
As to `Cc1cc(C)cc(-c2ccc(OCCN(C)C)c(/C=C/C(=O)c3ccccc3OCCCN(C)C)c2)c1` [Compound C104, (E)-3-[4-(2-Dimethylamino-ethoxy)-3′,5′-dimethyl-biphenyl-3-yl]-1-[2-(3-dimethylamino-propoxy)-phenyl]-propenone], the MIC in assay [1] (setting [8]) is 9.4 µM (≈ 4.71 µg/mL); in assay [2] (setting [9]), 9.4 µM (≈ 4.71 µg/mL); in assay [3] (setting [10]), 9.4 µM (≈ 4.71 µg/mL); in assay [4] (setting [11]), 18.8 µM (≈ 9.41 µg/mL); in assay [7], 18.8 µM (≈ 9.41 µg/mL); in assay [5] (setting [12]) it was 9.4 µM (≈ 4.71 µg/mL). In assay [6] (H: Eschericia coli ESS), this molecule yielded an MIC of 9.4 µM (≈ 4.71 µg/mL).
On to `Cc1cc(C)cc(-c2ccc(OCCN(C)C)c(/C=C/C(=O)c3ccc(OCCN(C)C)cc3F)c2)c1` [Compound C157, (E)-3-[4-(2-Dimethylamino-ethoxy)-3′,5′-dimethyl-biphenyl-3-yl]-1-[4-(2-dimethylamino-ethoxy)-2-fluoro-phenyl]-propenone], for which the MIC in assay [1] (setting [8]) is 4.7 µM (≈ 2.37 µg/mL); in assay [2] (setting [9]), 9.4 µM (≈ 4.74 µg/mL); in assay [3] (setting [10]) it was 9.4 µM (≈ 4.74 µg/mL); in assay [4] (setting [11]), 9.4 µM (≈ 4.74 µg/mL); in assay [7], 18.8 µM (≈ 9.49 µg/mL); in assay [5] (setting [12]) it was 9.4 µM (≈ 4.74 µg/mL). The MIC in assay [6] (H: Eschericia coli ESS) came to 4.7 µM (≈ 2.37 µg/mL).
`Cc1cc(C)cc(-c2ccc(OCCN(C)C)c(/C=C/C(=O)c3ccccc3N)c2)c1` [Compound C093, (E)-1-(2-Amino-phenyl)-3-[4-(2-dimethylamino-ethoxy)-3′,5′-dimethyl-biphenyl-3-yl]-propenone]: the MIC is 4.7 µM (≈ 1.95 µg/mL) in assay [1] (setting [8]); 9.4 µM (≈ 3.9 µg/mL) in assay [2] (setting [9]); 4.7 µM (≈ 1.95 µg/mL) in assay [3] (setting [10]); 4.7 µM (≈ 1.95 µg/mL) in assay [4] (setting [11]); 18.8 µM (≈ 7.79 µg/mL) in assay [5] (setting [12]); 4.7 µM (≈ 1.95 µg/mL) in assay [6] (H: Eschericia coli ESS).
With `Cc1cc(C)cc(-c2ccc(OCCN(C)C)c(/C=C/C(=O)c3ccccc3OC(C)C)c2)c1` [Compound C067, (E)-3-[4-(2-Dimethylamino-ethoxy)-3′,5′-dimethyl-biphenyl-3-yl]-1(2-isopropoxy-phenyl)-propenone], the MIC in assay [1] (setting [8]) was 4.7 µM (≈ 2.15 µg/mL); in assay [2] (setting [9]) it was 4.7 µM (≈ 2.15 µg/mL); in assay [3] (setting [10]) it was 4.7 µM (≈ 2.15 µg/mL); in assay [4] (setting [11]) it was 4.7 µM (≈ 2.15 µg/mL); in assay [5] (setting [12]), 18.8 µM (≈ 8.6 µg/mL); in assay [6] (H: Eschericia coli ESS) it was 18.8 µM (≈ 8.6 µg/mL).
`Cc1cc(C)cc(-c2ccc(OCCN(C)C)c(/C=C/C(=O)c3cccc(N4CCN(C)CC4)c3)c2)c1` [Compound C103, (E)-3-[4-(2-Dimethylamino-ethoxy)-3′,5′-dimethyl-biphenyl-3-yl]-1-[3-(4-methyl-piperazin-1-yl)-phenyl]-propenone]: the MIC in assay [1] (setting [8]) stood at 4.7 µM (≈ 2.34 µg/mL); in assay [2] (setting [9]), 9.4 µM (≈ 4.68 µg/mL); in assay [3] (setting [10]) it was 9.4 µM (≈ 4.68 µg/mL); in assay [4] (setting [11]), 4.7 µM (≈ 2.34 µg/mL); in assay [7], 18.8 µM (≈ 9.36 µg/mL); in assay [6] (H: Eschericia coli ESS) it was 4.7 µM (≈ 2.34 µg/mL). Also, the “activity against E coli ATCC25922” value in assay [7] was “high activity”. Further, the “activity against ESS strain of E.coli” value in assay [6] is on record as “high activity”.
